Measured values reported in ChEMBL document CHEMBL5247620, “Lupane derivatives containing various aryl substituents in the position 3 have selective cytostatic effect in leukemic cancer cells including resistant phenotypes” (Eur J Med Chem, 2022).

Experiments:
[1] = Cytotoxicity against human p53HCT116 cells assessed as inhibition of cell growth incubated for 72 hrs by MTS assay; type: functional, cell-based; settings: p53HCT116, 72 h
HCT-116 = assay: Cytotoxicity against human HCT-116 cells assessed as inhibition of cell growth incubated for 72 hrs by MTS assay; type: functional, cell-based; settings: HCT-116, 72 h
[2] = Cytotoxicity against human BJ cells assessed as inhibition of cell growth incubated for 72 hrs by MTS assay; type: toxicity, cell-based
[3] = Cytotoxicity against human MRC5 cells assessed as inhibition of cell growth incubated for 72 hrs by MTS assay; type: toxicity, cell-based
U2OS = assay: Cytotoxicity against human U2OS cells assessed as inhibition of cell growth incubated for 72 hrs by MTS assay; type: functional, cell-based
CCRF-CEM = assay: Cytotoxicity against human CCRF-CEM cells assessed as inhibition of cell growth incubated for 72 hrs by MTS assay; type: functional, cell-based
CEM-DNR = assay: Cytotoxicity against human CEM-DNR cells assessed as inhibition of cell growth incubated for 72 hrs by MTS assay; type: functional, cell-based
K562 = assay: Cytotoxicity against human K562 cells assessed as inhibition of cell growth incubated for 72 hrs by MTS assay; type: functional, cell-based; settings: K562, 72 h
[4] = Cytotoxicity against human K562-Tax cells assessed as inhibition of cell growth incubated for 72 hrs by MTS assay; type: functional, cell-based
A549 = assay: Cytotoxicity against human A549 cells assessed as inhibition of cell growth incubated for 72 hrs by MTS assay; type: functional, cell-based; settings: A549, 72 h

Structure (SMILES) | IC50 [1] [µM] | IC50 (HCT-116) [µM] | IC50 at 72 h [2] [µM] | IC50 at 72 h [3] [µM] | IC50 (U2OS) [µM] | IC50 (CCRF-CEM) [µM] | IC50 (CEM-DNR) [µM] | IC50 (K562) [µM] | IC50 [4] [µM] | IC50 (A549) [µM]
C=C(C)[C@@H]1CC[C@]2(C(=O)OCc3ccccc3)CC[C@]3(C)[C@H](CC[C@@H]4[C@@]5(C)CC=C(OS(=O)(=O)C(F)(F)F)C(C)(C)[C@@H]5CC[C@]43C)[C@@H]12 | 29 | 22 | 40 | 27 | 29 | 14 | 22 | 23 | 18 | 20
C=C(C)[C@@H]1CC[C@]2(C(=O)O)CC[C@]3(C)[C@H](CC[C@@H]4[C@@]5(C)CC=C(c6cccc(C(F)(F)F)c6)C(C)(C)[C@@H]5CC[C@]43C)[C@@H]12 | > 50 | 37 | > 50 | 50 | 45 | 19 | 37 | > 50 | 30 | 46
C=C(C)[C@@H]1CC[C@]2(C(=O)O)CC[C@]3(C)[C@H](CC[C@@H]4[C@@]5(C)CC=C(c6ccccc6N)C(C)(C)[C@@H]5CC[C@]43C)[C@@H]12 | 18 | 46 | > 50 | > 50 | 27 | 11 | 46 | 46 | 44 | 24
C=C(C)[C@@H]1CC[C@]2(C(=O)O)CC[C@]3(C)[C@H](CC[C@@H]4[C@@]5(C)CC=C(c6ccccc6O)C(C)(C)[C@@H]5CC[C@]43C)[C@@H]12 | > 50 | 30 | > 50 | 31 | 26 | 10 | 30 | > 50 | 15 | 41
C=C(C)[C@@H]1CC[C@]2(C(=O)O)CC[C@]3(C)[C@H](CC[C@@H]4[C@@]5(C)CC=C(c6cccc(C(=O)OC)c6)C(C)(C)[C@@H]5CC[C@]43C)[C@@H]12 | 41 | 50 | > 50 | 44 | 8.8 | 17 | > 50 | > 50 | 43 | > 50
C=C(C)[C@@H]1CC[C@]2(C(=O)O)CC[C@]3(C)[C@H](CC[C@@H]4[C@@]5(C)CC=C(c6cccc(OC)c6)C(C)(C)[C@@H]5CC[C@]43C)[C@@H]12 | > 50 | 31 | > 50 | > 50 | 35 | 15 | 31 | > 50 | 29 | 45
C=C(C)[C@@H]1CC[C@]2(C(=O)O)CC[C@]3(C)[C@H](CC[C@@H]4[C@@]5(C)CC=C(c6ccccc6C(=O)OC)C(C)(C)[C@@H]5CC[C@]43C)[C@@H]12 | 23 | 27 | 38 | 22 | 25 | 15 | 27 | 26 | 29 | 26
C=C(C)[C@@H]1CC[C@]2(C(=O)O)CC[C@]3(C)[C@H](CC[C@@H]4[C@@]5(C)CC=C(c6ccccc6OC)C(C)(C)[C@@H]5CC[C@]43C)[C@@H]12 | 23 | 24 | 48 | 27 | 28 | 16 | 24 | 30 | 23 | 42
C=C(C)[C@@H]1CC[C@]2(C(=O)O)CC[C@]3(C)[C@H](CC[C@@H]4[C@@]5(C)CC=C(c6ccc(OC)cc6)C(C)(C)[C@@H]5CC[C@]43C)[C@@H]12 | 50 | 50 | 50 | 46 | 42 | 23 | 50 | 50 | 50 | 43
C=C(C)[C@@H]1CC[C@]2(C(=O)O)CC[C@]3(C)[C@H](CC[C@@H]4[C@@]5(C)CC=C(c6cccc([N+](=O)[O-])c6)C(C)(C)[C@@H]5CC[C@]43C)[C@@H]12 | 47 | 48 | 50 | 48 | 46 | 18 | 43 | 45 | 24 | 34
C=C(C)[C@@H]1CC[C@]2(C(=O)O)CC[C@]3(C)[C@H](CC[C@@H]4[C@@]5(C)CC=C(c6ccc(N)cc6)C(C)(C)[C@@H]5CC[C@]43C)[C@@H]12 | 24 | 25 | > 50 | > 50 | 22 | 3.8 | 11 | 17 | 19 | 26
C=C(C)[C@@H]1CC[C@]2(C(=O)O)CC[C@]3(C)[C@H](CC[C@@H]4[C@@]5(C)CC=C(c6ccc([N+](=O)[O-])cc6)C(C)(C)[C@@H]5CC[C@]43C)[C@@H]12 | > 50 | > 50 | > 50 | > 50 | 42 | 26 | > 50 | > 50 | > 50 | > 50
C=C(C)[C@@H]1CC[C@]2(C(=O)O)CC[C@]3(C)[C@H](CC[C@@H]4[C@@]5(C)CC=C(c6ccc(C(=O)OC)cc6)C(C)(C)[C@@H]5CC[C@]43C)[C@@H]12 | 47 | 47 | 47 | 46 | 46 | 46 | 47 | 48 | 7.2 | 47
